In ChEMBL document CHEMBL1129993, “Synthesis and biological characterization of 1,4,5,6-tetrahydropyrimidine and 2-amino-3,4,5,6-tetrahydropyridine derivatives as selective m1 agonists” (J Med Chem, 1997):
pEC50, pIC50, pKi: −log10 of the molar value.

What was measured:
[1] = molecular target: T1, Muscarinic acetylcholine receptor M1 (Mus musculus, UniProt P12657); test: biochemical
T1 sequence (P12657 whole entry): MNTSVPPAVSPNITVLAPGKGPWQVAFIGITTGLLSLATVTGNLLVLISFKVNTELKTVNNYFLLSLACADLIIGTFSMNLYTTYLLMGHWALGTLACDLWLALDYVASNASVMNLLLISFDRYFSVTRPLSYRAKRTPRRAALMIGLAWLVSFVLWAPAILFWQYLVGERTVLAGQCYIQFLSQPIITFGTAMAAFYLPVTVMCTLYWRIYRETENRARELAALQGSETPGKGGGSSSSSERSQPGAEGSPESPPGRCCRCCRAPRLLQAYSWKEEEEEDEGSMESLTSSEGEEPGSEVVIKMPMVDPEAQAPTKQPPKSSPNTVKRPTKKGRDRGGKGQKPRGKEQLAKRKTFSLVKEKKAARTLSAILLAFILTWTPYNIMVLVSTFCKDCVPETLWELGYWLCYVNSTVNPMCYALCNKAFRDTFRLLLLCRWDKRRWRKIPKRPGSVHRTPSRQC

[2] = molecular target: T1, Muscarinic acetylcholine receptor M1; test: biochemical; remark: listed apart in the source
[3] = molecular target: T1, Muscarinic acetylcholine receptor M1
Description: Tested against Muscarinic acetylcholine receptor M1 expressed in A9 L cell line

[4] = molecular target: Muscarinic acetylcholine receptor M3 (Mus musculus, UniProt Q9ERZ3)
Chain of Muscarinic acetylcholine receptor M3 (Q9ERZ3 whole entry): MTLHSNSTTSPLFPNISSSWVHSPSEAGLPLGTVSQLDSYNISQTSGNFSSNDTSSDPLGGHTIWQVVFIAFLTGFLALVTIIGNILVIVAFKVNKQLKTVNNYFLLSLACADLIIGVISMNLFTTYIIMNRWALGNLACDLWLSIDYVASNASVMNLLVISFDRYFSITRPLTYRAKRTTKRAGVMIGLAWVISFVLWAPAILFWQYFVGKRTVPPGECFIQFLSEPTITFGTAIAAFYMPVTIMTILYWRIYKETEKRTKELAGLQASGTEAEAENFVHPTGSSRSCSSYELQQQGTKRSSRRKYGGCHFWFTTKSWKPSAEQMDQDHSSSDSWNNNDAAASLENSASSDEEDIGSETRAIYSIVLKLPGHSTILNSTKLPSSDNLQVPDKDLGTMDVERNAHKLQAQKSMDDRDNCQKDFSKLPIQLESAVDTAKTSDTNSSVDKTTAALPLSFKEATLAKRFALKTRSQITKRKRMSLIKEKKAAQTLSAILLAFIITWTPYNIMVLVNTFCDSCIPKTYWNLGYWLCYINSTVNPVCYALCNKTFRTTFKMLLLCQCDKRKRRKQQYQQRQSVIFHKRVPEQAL
Description: Tested against Muscarinic acetylcholine receptor M3 expressed in A9 L cell line

[5] = test system: A9; test: cells; conditions: Mus musculus, A9L
Description: Inhibition of Forskolin-Induced cAMP production in A9 L cells expressing m2 receptors

[6] = molecular target: T1, Muscarinic acetylcholine receptor M1; test: biochemical; remark: listed apart in the source
[7] = organism: Rattus norvegicus; test: Tested for agonist activity through assays of phosphoinositide (PI) metabolism in slices from rat cerebral cortex at 100 uM; assay type: functional

| SMILES | pKi [1] | pKi [2] | pEC50 [3] | pEC50 [4] | pIC50 [5] | pKi [6] | Activity [7] [%] |
| --- | --- | --- | --- | --- | --- | --- | --- |
| CCCC#Cc1noc(C2CN=CNC2)n1 (configuration not stated) | 6.86 | 7.76 |  |  |  |  |  |
| CCc1noc(C2CN=CNC2)n1 (configuration not stated) |  |  | 4.92 | 5.00 |  |  |  |
| C[N+](C)(C)CC#CCN1CCCC1=O [OXOTREMORINE METHIODIDE] |  |  | 6.15 |  |  |  |  |
| COC(=O)C1CN=CNC1 (configuration not stated) | 6.44 | 7.63 | 3.70 | 4.30 | 5.80 | 7.57 |  |
| Cc1noc(C2=CCCN(C)C2)n1 |  | 9.23 | 4.92 | 5.55 | 5.92 | 8.98 |  |
| C#C/C(C)=C/COC(=O)C1CN=CNC1 (configuration not stated) |  |  | 4.10 |  |  |  |  |
| C#CCCOC(=O)C1CN=CNC1 (configuration not stated) | 7.51 | 7.81 | 3.25 |  |  |  |  |
| C#CCOC(=O)C1CCC(N)=NC1 (configuration not stated) |  |  | 3.94 | 4.92 | 6.36 |  |  |
| C[N+](C)(C)CCOC(N)=O.[Cl-] [CARBACHOL] |  |  |  | 5.00 | 7.00 |  | 470 |
| COC(=O)C1CN=C(N)NC1 (configuration not stated) |  |  | 3.80 |  |  |  |  |
| Cc1noc(C2CN=CNC2)n1 (configuration not stated) | 7.68 | 8.64 | 5.27 | 5.96 | 6.96 | 8.60 |  |
| C#CCOC(=O)C1CN=CNC1 (configuration not stated) | 7.38 | 8.54 | 4.48 | 4.74 | 6.11 |  |  |
| COCc1noc(C2CN=CNC2)n1 (configuration not stated) |  |  |  | 4.96 |  |  |  |
| O=C1CCCN1CC#CCN1CCCC1 [OXOTREMORINE] |  |  | 6.57 |  |  |  |  |
| CCOC(=O)C1CN=CNC1 (configuration not stated) |  |  | 4.36 | 4.77 |  |  |  |
| CSCc1noc(C2CN=CNC2)n1 (configuration not stated) |  |  | 4.85 | 5.24 |  |  |  |
| C#CCOC(=O)C1CN=C(N)NC1 (configuration not stated) |  |  | 3.52 |  |  |  |  |
| CC#CCOC(=O)C1CN=CNC1 (configuration not stated) | 7.85 | 8.05 | 4.30 |  |  |  |  |
| CCCCCCOc1nsnc1C1=CCCN(C)C1 [XANOMELINE] |  |  |  | 4.96 | 5.15 |  |  |
| COC(=O)C1CCC(N)=NC1 (configuration not stated) |  |  | 4.39 | 4.85 |  |  |  |
